Assay results reported in ChEMBL document CHEMBL1201862, “PubChem BioAssay data set” (2004).
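1) Cells in 96-well plates. 2) Compound, 48 h, 5 concentrations. 3) Linear interpolation between surrounding doses. 4) Unreached endpoint = highest concentration. GI50: concentration for 50% inhibition of growth.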 The source made the active and inactive calls. Cut-off read from the data, not from the text of the source: active = GI50 up to about 1.1 µM and inactive = higher.

Experiments:
Assay in all cases: NCI-60 cell line screen, 48 h
[1] = tested on: CCRF-CEM
[2] = tested on: SW-620
[3] = tested on: PC-3
[4] = tested on: UACC-257
[5] = tested on: MDA-N
[6] = tested on: HT-29
[7] = tested on: CAKI-1
[8] = tested on: SF-268
[9] = tested on: Malme-3M
[10] = tested on: TK-10
[11] = tested on: DU-145
[12] = tested on: MCF7
[13] = tested on: M14
[14] = tested on: A549
[15] = tested on: SK-MEL-2
[16] = tested on: SF-539
[17] = tested on: OVCAR-3
[18] = tested on: NCI-H522
[19] = tested on: SNB-19
[20] = tested on: UO-31

Structure (SMILES)	GI50 [1]	GI50 [2]	GI50 [3]	GI50 [4]	GI50 [5]	GI50 [6]	GI50 [7]	GI50 [8]	GI50 [9]	GI50 [10]	GI50 [11]	GI50 [12]	GI50 [13]	GI50 [14]	GI50 [15]	GI50 [16]	GI50 [17]	GI50 [18]	GI50 [19]	GI50 [20]
COc1ccc(NC(=O)/C(O)=C/C(=O)c2ccccc2)cc1	2.53 µM (inactive)	> 10 µM (inactive)	> 10 µM (inactive)	> 10 µM (inactive)	> 10 µM (inactive)	> 10 µM (inactive)	> 10 µM (inactive)	> 10 µM (inactive)	> 10 µM (inactive)	> 10 µM (inactive)	> 10 µM (inactive)	> 10 µM (inactive)	> 10 µM (inactive)	> 10 µM (inactive)						
COc1ccc([N+](=O)[O-])cc1[I+]c1cc([N+](=O)[O-])ccc1OC	25.4 µM (inactive)	45.3 µM (inactive)	52 µM (inactive)	33.6 µM (inactive)		38 µM (inactive)	38.6 µM (inactive)	25.1 µM (inactive)	4.47 µM (inactive)	58.6 µM (inactive)	> 100 µM (inactive)	31.9 µM (inactive)	39.6 µM (inactive)	45.8 µM (inactive)	27.5 µM (inactive)	44 µM (inactive)	54.1 µM (inactive)	27 µM (inactive)	34.9 µM (inactive)	60.5 µM (inactive)
CC(C)(C)c1ccc2c(c1)C(=O)c1ccccc1C2=O	57.1 µM (inactive)	> 100 µM (inactive)	37.7 µM (inactive)	40.2 µM (inactive)	37.5 µM (inactive)	27.2 µM (inactive)	> 100 µM (inactive)	39.4 µM (inactive)	> 100 µM (inactive)	86.3 µM (inactive)	> 100 µM (inactive)	20.6 µM (inactive)	> 100 µM (inactive)	38.6 µM (inactive)		> 100 µM (inactive)	> 100 µM (inactive)		> 100 µM (inactive)	> 100 µM (inactive)
CCCCCCCCCCCCOP(=O)(O)OP(=O)(O)OCC1OC(n2ccc(N)nc2=O)CC1O (stereo not given)	> 100 µM (inactive)	> 100 µM (inactive)	> 100 µM (inactive)	> 100 µM (inactive)	> 100 µM (inactive)	> 100 µM (inactive)	> 100 µM (inactive)	> 100 µM (inactive)	> 100 µM (inactive)	> 100 µM (inactive)		> 100 µM (inactive)	> 100 µM (inactive)	> 100 µM (inactive)	> 100 µM (inactive)	> 100 µM (inactive)	> 100 µM (inactive)	> 100 µM (inactive)	> 100 µM (inactive)	> 100 µM (inactive)
Cc1ccc(S(=O)(=O)Oc2cc(N)c3c(n2)CCC3)cc1	64.1 µM (inactive)	> 100 µM (inactive)	> 100 µM (inactive)	46.2 µM (inactive)	> 100 µM (inactive)	48.3 µM (inactive)	> 100 µM (inactive)	> 100 µM (inactive)		> 100 µM (inactive)	> 100 µM (inactive)	> 100 µM (inactive)	> 100 µM (inactive)	> 100 µM (inactive)	> 100 µM (inactive)	> 100 µM (inactive)	37.9 µM (inactive)		> 100 µM (inactive)	69.3 µM (inactive)
CC1CCCc2c(CC3CC(=O)NC(=O)C3)nc(N)nc21 (stereo not given)	> 100 µM (inactive)	> 100 µM (inactive)	> 100 µM (inactive)	> 100 µM (inactive)	> 100 µM (inactive)	> 100 µM (inactive)	> 100 µM (inactive)	> 100 µM (inactive)	> 100 µM (inactive)	> 100 µM (inactive)	> 100 µM (inactive)	> 100 µM (inactive)	> 100 µM (inactive)	> 100 µM (inactive)	> 100 µM (inactive)	> 100 µM (inactive)	> 100 µM (inactive)			
O=C(/C(=N\Nc1ccc([N+](=O)[O-])cc1[N+](=O)[O-])NC12CC3CC(CC(C3)C1)C2)C(Br)C(=O)c1ccccc1 (stereo not given)	2.67 µM (inactive)	0.766 µM (active)	2.61 µM (inactive)	1.88 µM (inactive)	4.69 µM (inactive)	4.45 µM (inactive)	3.2 µM (inactive)	5.05 µM (inactive)	3.13 µM (inactive)	5.66 µM (inactive)	4.48 µM (inactive)	3.86 µM (inactive)	2.86 µM (inactive)	3.33 µM (inactive)	2.12 µM (inactive)	3.31 µM (inactive)	2.54 µM (inactive)		3.97 µM (inactive)	6.12 µM (inactive)
COC(=O)C1=C(N)C2=C(N)Oc3ccccc3C2CC1=C(C#N)C#N (stereo not given)	24.2 µM (inactive)	33.7 µM (inactive)	28.1 µM (inactive)	34.7 µM (inactive)		26.2 µM (inactive)	23.2 µM (inactive)	29.7 µM (inactive)	21.6 µM (inactive)	25.6 µM (inactive)	26.5 µM (inactive)	12.7 µM (inactive)	19.4 µM (inactive)	32.6 µM (inactive)	25.9 µM (inactive)	43.6 µM (inactive)	25.6 µM (inactive)	15.8 µM (inactive)	18.6 µM (inactive)	19.2 µM (inactive)
O=c1[nH]c2ccc(CC(=S)N3CCOCC3)cc2s1	> 100 µM (inactive)	> 100 µM (inactive)	> 100 µM (inactive)	> 100 µM (inactive)	> 100 µM (inactive)	> 100 µM (inactive)	> 100 µM (inactive)	> 100 µM (inactive)	> 100 µM (inactive)	> 100 µM (inactive)	> 100 µM (inactive)	> 100 µM (inactive)	> 100 µM (inactive)		> 100 µM (inactive)	> 100 µM (inactive)	> 100 µM (inactive)		> 100 µM (inactive)	
Cc1coc2c1CC1OC1(C)CCC1OC1(C)C2 (stereo not given)	> 100 µM (inactive)	> 100 µM (inactive)	> 100 µM (inactive)	> 100 µM (inactive)	> 100 µM (inactive)		> 100 µM (inactive)	> 100 µM (inactive)		> 100 µM (inactive)	> 100 µM (inactive)	> 100 µM (inactive)	> 100 µM (inactive)	> 100 µM (inactive)	> 100 µM (inactive)	> 100 µM (inactive)	> 100 µM (inactive)	> 100 µM (inactive)	> 100 µM (inactive)	> 100 µM (inactive)
O=C(NCCCCCCO)c1cccc2cc3ccccc3nc12	32.3 µM (inactive)	29.9 µM (inactive)	17 µM (inactive)	17.6 µM (inactive)	3.61 µM (inactive)	17.5 µM (inactive)	17.4 µM (inactive)			16.6 µM (inactive)	17.7 µM (inactive)	20.4 µM (inactive)		15.5 µM (inactive)	16.1 µM (inactive)	16.7 µM (inactive)	19.9 µM (inactive)	13.3 µM (inactive)	15.8 µM (inactive)	
COc1ccc(/C=C2\NC(=S)N(CN3CCOCC3)C2=O)cc1	> 100 µM (inactive)	> 100 µM (inactive)	> 100 µM (inactive)	> 100 µM (inactive)	> 100 µM (inactive)	> 100 µM (inactive)		> 100 µM (inactive)	> 100 µM (inactive)	> 100 µM (inactive)	> 100 µM (inactive)	> 100 µM (inactive)	> 100 µM (inactive)	> 100 µM (inactive)	> 100 µM (inactive)		> 100 µM (inactive)		> 100 µM (inactive)	> 100 µM (inactive)
O=c1[nH]c(=O)c2ncn(-c3ccc([N+](=O)[O-])cn3)c2[nH]1	> 100 µM (inactive)	> 100 µM (inactive)	> 100 µM (inactive)	> 100 µM (inactive)		> 100 µM (inactive)	> 100 µM (inactive)	> 100 µM (inactive)	2.79 µM (inactive)	> 100 µM (inactive)	> 100 µM (inactive)	> 100 µM (inactive)	> 100 µM (inactive)	> 100 µM (inactive)	> 100 µM (inactive)	> 100 µM (inactive)	> 100 µM (inactive)		> 100 µM (inactive)	> 100 µM (inactive)
COc1ccc(/C=C2\N=C3NC(=O)C(N4CCOCC4)=C(N)N3C2=O)cc1	> 100 µM (inactive)	> 100 µM (inactive)		> 100 µM (inactive)	> 100 µM (inactive)	> 100 µM (inactive)	> 100 µM (inactive)	76.2 µM (inactive)	> 100 µM (inactive)	53.7 µM (inactive)	> 100 µM (inactive)	> 100 µM (inactive)	> 100 µM (inactive)	> 100 µM (inactive)		> 100 µM (inactive)		75.3 µM (inactive)	96.8 µM (inactive)	> 100 µM (inactive)
O=C(Cn1c2ccc(Br)cc2c2nc3ccccc3nc21)NNC(=S)NC1CCCCC1	0.794 µM (active)	15.8 µM (inactive)	11.7 µM (inactive)	16.4 µM (inactive)	16.8 µM (inactive)	15.5 µM (inactive)	18 µM (inactive)	16.7 µM (inactive)	19.7 µM (inactive)	15.4 µM (inactive)	15.5 µM (inactive)		11.9 µM (inactive)	10.6 µM (inactive)	17.2 µM (inactive)		10.8 µM (inactive)	14.5 µM (inactive)	13.3 µM (inactive)	10.5 µM (inactive)
O=C1CSC(c2c[nH]c3ccccc23)N1c1cccc(Cl)c1 (stereo not given)	31.9 µM (inactive)	50.7 µM (inactive)		> 100 µM (inactive)	36.9 µM (inactive)	37.8 µM (inactive)		89.5 µM (inactive)		89.3 µM (inactive)	> 100 µM (inactive)	39.6 µM (inactive)	49.1 µM (inactive)	56.1 µM (inactive)	30.1 µM (inactive)	61.1 µM (inactive)	27.9 µM (inactive)		68.2 µM (inactive)	84.5 µM (inactive)
